# Reference: US7208502B2, “Methods of treating conditions associated with an Edg-3 receptor” (Maniv Energy Capital, priority 2002, dated 2007)
# Legend:
# [1] = test system: Adrenergic α1, non-selective; test: Radioligand binding assay, 3H Prazosin; parameters: species or system Wistar Rat; conditions: 10 μM; significance criteria ≧50% of max stimulation or inhibition
# Protocol: (§1) In order to test the selectivity of compounds, various enzyme assays as well as radioligand binding assays were performed using numerous non-Edg receptor targets as listed below.
# (§2) A radioligand binding assay was performed using adrenergic α1 according to the method of Greengrass and Bremner 1979, Eur. J. Pharmacol. 55:323–326. A radioligand binding assay was performed using adrenergic α2 according to the method of Boyajian and Leslie, 1987, J. Pharmacol. Exp. Ther. 241:1092–1098. A radioligand binding assay was performed using adrenergic β according to the method of Feve et al., 1994, Proc. Natl. Acad. Sci. USA 91:5677–5681. A radioligand binding assay was performed using angiotensin AT2 according to the method of Whitebread et al., 1991, Biochem. Biophys. Res. Comm. 181:1365–1371. A radioligand binding assay was performed using calcium channel Type L, dihydropyridine according to the method of Ehlert et al., 1982, Life Sci. 30:2191–2202. A radioligand binding assay was performed using dopamine D2L according to the method of Bunzo et al., 1988, Nature 336:783–787. A radioligand binding assay was performed using endothelin ETA according to the method of Mihara et al., 1994, J. Phrmacol. Exp Ther. 268:1122–1127. A radioligand binding assay was performed using histamine H1 Central according to the method of Hill et al., 1978, J. Neurochem. 31:997–1004. […]
# (§3) Quantitation Method: Radioligand Binding […]
# Adrenergic α2 = test: Radioligand binding assay, 3H Rauwolscine; parameters: species or system Wistar rat; conditions: 10 μM; significance criteria ≧50% of max stimulation or inhibition
# Protocol: as §1, §2, §3
# Edg-6 = target: T1, Edg-6 (Homo sapiens, UniProt O95977); test: Intracellular calcium assay, S1P-stimulated, HTC cells expressing Edg-6; format: cell-based; conditions: concentrations as high as 20 µM
# T1 construct: expressed in transfected cells; host or cells: HTC rat hepatoma cells
# T1 sequence (O95977 1-384): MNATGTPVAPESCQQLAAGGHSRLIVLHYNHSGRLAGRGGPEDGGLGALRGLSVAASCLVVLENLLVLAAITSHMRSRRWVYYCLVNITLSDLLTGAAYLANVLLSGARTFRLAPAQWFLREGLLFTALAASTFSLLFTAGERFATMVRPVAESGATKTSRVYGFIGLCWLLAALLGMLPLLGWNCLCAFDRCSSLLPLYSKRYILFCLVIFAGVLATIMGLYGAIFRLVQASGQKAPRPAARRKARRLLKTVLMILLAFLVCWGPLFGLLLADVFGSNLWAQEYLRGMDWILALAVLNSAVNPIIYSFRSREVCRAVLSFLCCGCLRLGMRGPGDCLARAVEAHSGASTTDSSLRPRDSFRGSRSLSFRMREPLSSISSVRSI
# [2] = test system: Serotonin 5-HT1, non-selective; test: Radioligand binding assay, 3H Serotonin (5-HT) Trifluoroacetate; parameters: species or system Wistar rat; conditions: 10 μM; significance criteria ≧50% of max stimulation or inhibition
# Protocol: as §1, §2, §3
# [3] = test system: Calcium Channel Type L, Dihydropyridine; test: Radioligand binding assay, 3H Nitrendipine; parameters: species or system Wistar Rat; conditions: 10 μM; significance criteria ≧50% of max stimulation or inhibition
# Protocol: as §1, §2, §3
# Histamine H1, Central = target: T2, Histamine H1, Central (Cavia porcellus, UniProt P31389); test: Radioligand binding assay, 3H Pyrilamine; parameters: species or system Guinea pig; conditions: 10 μM; significance criteria ≧50% of max stimulation or inhibition
# T2 construct: from tissue; host or cells: guinea pig cerebellum
# T2 sequence (P31389 whole entry): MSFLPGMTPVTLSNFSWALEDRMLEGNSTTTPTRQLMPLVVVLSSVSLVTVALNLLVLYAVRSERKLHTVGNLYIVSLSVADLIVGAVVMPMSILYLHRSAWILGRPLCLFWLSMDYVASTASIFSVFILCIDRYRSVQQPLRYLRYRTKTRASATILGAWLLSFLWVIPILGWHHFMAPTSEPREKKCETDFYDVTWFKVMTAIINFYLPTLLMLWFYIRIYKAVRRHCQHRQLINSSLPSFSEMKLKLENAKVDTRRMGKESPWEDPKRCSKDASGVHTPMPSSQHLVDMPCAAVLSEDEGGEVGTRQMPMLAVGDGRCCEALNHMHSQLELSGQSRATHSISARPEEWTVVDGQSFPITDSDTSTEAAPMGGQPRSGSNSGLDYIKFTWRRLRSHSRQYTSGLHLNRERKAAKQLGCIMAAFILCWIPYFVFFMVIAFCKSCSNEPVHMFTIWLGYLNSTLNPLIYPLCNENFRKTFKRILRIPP
# Protocol: as §1, §2, §3
# [4] = test system: Muscarinic non-selective, Central; test: Radioligand binding assay, 3H Quinuclidinyl benzilate; parameters: species or system Wistar rat; conditions: 10 μM; significance criteria ≧50% of max stimulation or inhibition
# Protocol: as §1, §2, §3
# Adrenergic β = test: Radioligand binding assay, 3H Dihydroaplenolol; parameters: species or system Wistar rat; conditions: 10 μM; significance criteria ≧50% of max stimulation or inhibition
# Protocol: as §1, §2, §3
# Edg-5 = target: T3, Edg-5 (Homo sapiens, UniProt O95136); test: Intracellular calcium assay, S1P-stimulated, HTC cells expressing Edg-5; format: cell-based; conditions: concentrations as high as 20 µM
# T3 construct: expressed in transfected cells; host or cells: HTC rat hepatoma cells
# T3 sequence (O95136 whole entry): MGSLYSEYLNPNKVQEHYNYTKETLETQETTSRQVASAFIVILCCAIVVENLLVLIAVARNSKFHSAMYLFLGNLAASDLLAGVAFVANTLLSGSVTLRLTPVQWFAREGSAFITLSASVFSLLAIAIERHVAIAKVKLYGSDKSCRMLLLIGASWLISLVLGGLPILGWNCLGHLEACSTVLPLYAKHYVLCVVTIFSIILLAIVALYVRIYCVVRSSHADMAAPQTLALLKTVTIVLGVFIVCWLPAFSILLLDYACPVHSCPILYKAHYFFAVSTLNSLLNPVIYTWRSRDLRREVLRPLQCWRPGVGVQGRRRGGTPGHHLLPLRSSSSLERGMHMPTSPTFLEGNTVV
compound,measurement,setting,value
"Cc1c(-c2ccccc2)nc2ccccc2c1C(=O)NCc1ccc(F)cc1 [Compound 101, 3-methyl-2-phenyl-quinoline-4-carboxylic acid 4-fluoro-benzylamide]","activity in standard binding assay, Adrenergic α1",[1],no activity
same,"activity in standard binding assay, Adrenergic α2",Adrenergic α2,no activity
same,"inhibition of S1P-stimulated calcium increases, Edg-6",Edg-6,did not inhibit
same,"activity in standard binding assay, Serotonin 5-HT1, non-selective",[2],no activity
same,"activity in standard binding assay, Calcium Channel Type L, Dihydropyridine",[3],no activity
same,"activity in standard binding assay, Histamine H1, Central","Histamine H1, Central",no activity
same,"activity in standard binding assay, Muscarinic non-selective, Central",[4],no activity
same,"activity in standard binding assay, Adrenergic β",Adrenergic β,no activity
same,"inhibition of S1P-stimulated calcium increases, Edg-5",Edg-5,did not inhibit
